Measured values from PubChem BioAssay (NCI).
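Dose response: 5 concentrations. Exposure: 48 h. Format: 96-well plates. Endpoint: linear interpolation; highest concentration if not reached. GI50 marks 50% less growth. The concentration for full growth arrest is given as TGI.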

What was measured:
Assay in all cases: NCI tumour cell line growth inhibition, 48 h
SK-OV-3 ovarian = system: SK-OV-3 ovarian
OVCAR-5 ovarian = system: OVCAR-5 ovarian
TK-10 renal = system: TK-10 renal
SK-MEL-2 melanoma = system: SK-MEL-2 melanoma
OVCAR-4 ovarian = system: OVCAR-4 ovarian
RXF 393 renal = system: RXF 393 renal
UACC-257 melanoma = system: UACC-257 melanoma
HOP-62 NSCLC = system: HOP-62 NSCLC
SK-MEL-28 melanoma = system: SK-MEL-28 melanoma
NCI/ADR-RES ovarian = system: NCI/ADR-RES ovarian

| Compound | TGI (SK-OV-3 ovarian) [µM] | TGI (OVCAR-5 ovarian) [µM] | TGI (TK-10 renal) [µM] | TGI (SK-MEL-2 melanoma) [µM] | TGI (OVCAR-4 ovarian) [µM] | TGI (RXF 393 renal) [µM] | TGI (UACC-257 melanoma) [µM] | TGI (HOP-62 NSCLC) [µM] | TGI (SK-MEL-28 melanoma) [µM] | TGI (NCI/ADR-RES ovarian) [µM] | GI50 (SK-OV-3 ovarian) [µM] | GI50 (OVCAR-5 ovarian) [µM] | GI50 (SK-MEL-28 melanoma) [µM] | GI50 (NCI/ADR-RES ovarian) [µM] | GI50 (TK-10 renal) [µM] | GI50 (SK-MEL-2 melanoma) [µM] | GI50 (OVCAR-4 ovarian) [µM] | GI50 (RXF 393 renal) [µM] | GI50 (UACC-257 melanoma) [µM] |
| --- | --- | --- | --- | --- | --- | --- | --- | --- | --- | --- | --- | --- | --- | --- | --- | --- | --- | --- | --- |
| COc1ccc(/C(Cl)=C(\C=O)c2ccc(OC)cc2)cc1 | > 100 | > 100 | > 100 | > 100 | > 100 | > 100 | > 100 | > 100 |  |  |  |  |  |  |  |  |  |  |  |
| Cc1c2cccc-2c(OCCO)cc2c3ccccc3n(C)c12 | 7.34 | 16.1 | 23.4 | 12.8 | 15.1 | > 100 | 17.6 | 16.1 | 21.4 | > 100 |  |  |  |  |  |  |  |  |  |
| CC(C)C(C/C=C1\CC(CO)(COC(=O)C(C)(C)C)OC1=O)C(C)C (stereo not given) | 29 | 25.4 | 21.1 | 39.5 | 31.9 | 33.5 | 32.6 | 20.4 | 26.4 | 32.4 |  |  |  |  |  |  |  |  |  |
| COc1ccc2c(c1)CCCN2CCCCCCCCCCN(CCC(C)C)CCC(C)C | 40.9 | 28.4 | 31.9 | 22.8 | 19.4 |  | 32.5 | 26.1 | 27.2 |  |  |  |  |  |  |  |  |  |  |
| COc1ccc(C2=C3SC=c4ccccc4=C3ON=C2c2ccccc2)cc1 |  | > 100 | > 100 | > 100 | > 100 | > 100 | > 100 | > 100 | > 100 | > 100 |  |  |  |  |  |  |  |  |  |
| N=C1C(=N)c2ccccc2-c2ccccc21.N=C1C(=N)c2ccccc2-c2ccccc21.N=C1C(=N)c2ccccc2-c2ccccc21.[Cl-].[Ru+2] | 6.91 | 18.6 |  |  | 2.85 | 5.58 | 3.53 | 8.97 | 3.79 |  |  |  |  |  |  |  |  |  |  |
| NCCCn1c2c(c3ccc([N+](=O)[O-])cc3c1=O)C(=O)c1ccccc1-2 | 2.28 | 1.3 | 1.83 | > 50 | 0.47 | 2.1 | > 16.6 |  |  | 2.41 | 0.631 | 0.414 | 0.497 | 0.427 | 0.212 | 1.6 | 0.116 | 0.709 | 0.495 |
| Cc1cc(/N=C/c2ccc(F)cc2)n(-c2ccccc2)n1 | > 100 | > 100 | > 100 | > 100 | > 100 | > 100 | > 100 | > 100 | > 100 | > 100 |  |  |  |  |  |  |  |  |  |
| CC(=O)NNc1nc(-c2ccc([N+](=O)[O-])cc2)c(C#N)c(=O)n1C | > 100 | 77 | 72.8 | > 100 | 52.7 | > 100 | > 100 | 52.5 | > 100 | > 100 |  |  |  |  |  |  |  |  |  |
| CC(=O)O[C@H]1CC[C@@]2(C)C(=CC[C@H]3[C@@H]4C/C(=C\c5ccc(N(C)C)cc5)[C@H](OC(C)=O)[C@@]4(C)CC[C@@H]32)C1 | > 100 | 52.8 | 35.6 | 22.5 | 69 | 42.7 | 21.4 | 51.6 | 32.8 | 35.4 |  |  |  |  |  |  |  |  |  |
| CSc1ccsc1-c1sc(-c2cc(SC)c(-c3sc(-c4cc(SC)c(-c5sccc5SC)s4)cc3SC)s2)cc1SC | > 100 | > 100 | > 100 | > 100 | > 100 | > 100 | > 100 | > 100 | > 100 | > 100 |  |  |  |  |  |  |  |  |  |
| CCSC1=N/C(=C\c2ccc(N(C)C)cc2)C(Cl)=N1 | > 100 | > 100 | > 100 | > 100 | > 100 | > 100 | > 100 | > 100 | > 100 | > 100 |  |  |  |  |  |  |  |  |  |
| NCCc1cc(O)c(O)cc1O | > 84.1 | 61.3 | > 100 | 71.7 | 25.6 | 97.5 | 62.1 | 45 | 97.5 | > 86.7 |  |  |  |  |  |  | 12.3 |  |  |
| CN(C)CCCn1cnc2cc(Cl)c(Cl)cc21 | > 100 | > 100 | > 100 | > 100 | > 100 | > 100 | 40.7 | > 100 | 41.8 | > 100 |  |  |  |  |  |  |  |  |  |
| CCc1nc(N)nc(N)c1-c1ccc([N+](C)(C)C)cc1 | > 100 | > 100 | > 100 | > 100 | > 100 | > 100 | > 100 | > 100 | > 100 | > 100 |  |  |  |  |  |  |  |  |  |
| O=P1(c2ccccc2)Nc2ccccc2SSc2ccccc2N1 | 44.4 | 36.1 |  | 32.2 | 33.6 | 34.5 | 30.3 |  | 34.3 | 42.3 |  |  |  |  |  |  |  |  |  |
| O=C1NI(C#Cc2ccccc2)c2ccccc21 | 95.1 |  | > 100 | > 100 | > 100 |  | > 100 | > 100 | > 100 | > 100 |  |  |  |  |  |  |  |  |  |

| Compound | TGI (SK-OV-3 ovarian) [µM] | TGI (OVCAR-5 ovarian) [µM] | TGI (TK-10 renal) [µM] | TGI (SK-MEL-2 melanoma) [µM] | TGI (OVCAR-4 ovarian) [µM] | TGI (RXF 393 renal) [µM] | TGI (UACC-257 melanoma) [µM] | TGI (HOP-62 NSCLC) [µM] | TGI (SK-MEL-28 melanoma) [µM] | TGI (NCI/ADR-RES ovarian) [µM] | GI50 (SK-OV-3 ovarian) [µM] | GI50 (OVCAR-5 ovarian) [µM] | GI50 (SK-MEL-28 melanoma) [µM] | GI50 (NCI/ADR-RES ovarian) [µM] | GI50 (TK-10 renal) [µM] | GI50 (SK-MEL-2 melanoma) [µM] | GI50 (OVCAR-4 ovarian) [µM] | GI50 (RXF 393 renal) [µM] | GI50 (UACC-257 melanoma) [µM] |
| --- | --- | --- | --- | --- | --- | --- | --- | --- | --- | --- | --- | --- | --- | --- | --- | --- | --- | --- | --- |
| COc1cc(C2CC(c3cccc(Nc4ccncc4)c3)=NN2c2ccc(Cl)cc2)cc(OC)c1OC (stereo not given) | 3.43 | 3.13 |  | 3.91 | 3.08 |  | 3.84 |  | 3.12 |  | 1.77 | 1.66 | 1.68 |  |  | 1.89 | 1.62 |  | 1.96 |
| COc1ccc2c(C(=O)c3cn(CCN4CCOCC4)c4ccccc34)cccc2c1 | > 100 | > 100 | > 100 | > 100 | > 100 | > 100 | > 100 | > 100 | > 100 | > 100 |  |  |  |  |  |  |  |  |  |
| COC(C)(C)OCCN1CCN(CCN2C3=C(C=C(C(C)=O)C3)Sc3ccccc32)CC1 | 79.8 | 59.1 | 34.6 | 41.4 | > 100 | 42.2 | 36.9 | 36.2 | 32.9 | 50.2 |  |  |  |  |  |  |  |  |  |
| CC1(C)OC2C(O)C(CO)OC2(C(F)F)O1 (stereo not given) | > 100 | > 100 | > 100 | > 100 | > 100 | > 100 | > 100 | > 100 | > 100 | > 100 |  |  |  |  |  |  |  |  |  |
| CCCOC(=O)CNC(=O)OC(C)(C)C | > 100 | > 100 | > 100 | > 100 | > 100 | > 100 | > 100 | > 100 | > 100 |  |  |  |  |  |  |  |  |  |  |
| Cc1cccc2c1Sc1ccccc1C2NC(=O)CCN(C)C (stereo not given) | > 100 | > 100 | > 100 |  | > 100 | > 100 | > 100 | > 100 | > 100 |  |  |  |  |  |  |  |  |  |  |
| C=CCN(C(=O)CNC(=O)C(F)(F)F)c1cc(OCc2ccccc2)c2c(c1)c(C)cn2S(=O)(=O)c1ccccc1 | > 100 | > 100 | > 100 | > 100 | > 100 | > 100 | > 100 | > 100 | > 100 | > 100 |  |  |  |  |  |  |  |  |  |
| COc1ccc(-c2nc3ncccn3c2-c2ccc(SC)cc2)cc1 | 2.85 | 7.06 |  | > 100 | > 100 |  | > 100 | 44.3 | > 100 | 5.24 |  |  |  |  |  |  |  |  |  |
| CCOC(=O)c1c2c(n(Cc3ccccc3)c1C)C(=O)C(=O)c1ccccc1-2 | 5.76 |  | 1.18 |  |  |  | 0.285 | 0.536 | 0.601 | > 100 |  |  |  |  |  |  |  |  |  |
| Nc1n[nH]c(=O)c2c1c(I)cn2C1OC(CO)C(O)C1O (stereo not given) | > 100 |  | > 100 | 0.049 | 14.4 | 3.22 | 13.4 | 21.5 | 3.47 |  |  |  |  |  |  |  |  |  |  |
| CN(C)CCNC(=O)c1cccc2ccc(-c3ccc(F)cc3)nc12 | 24.8 | 25.6 |  | 21.3 | 18.3 | 20.4 | 17.9 | 27.8 | 20.1 | 18.4 |  |  |  |  |  |  |  |  |  |
| O=C(Nc1ccc([N+](=O)[O-])cc1[N+](=O)[O-])C(=O)C(C(=O)c1ccc2ccccc2c1)C1OC(=O)c2ccccc21 (stereo not given) | 42.1 | 58.2 | 61.7 | 43.4 | 60.3 | 27.3 | 58 | 68.4 | 48 |  |  |  |  |  |  |  |  |  |  |
| Oc1cn(-c2ccc(Cl)cc2)nc1-c1n[nH]c(=S)n1-c1ccccc1 | 51.3 | 46.2 | 58.7 | 52.7 | > 100 | 36.9 | > 100 | 22.7 | > 100 | 14.1 |  |  |  |  |  |  |  |  |  |
| COc1cc(/C=C/C(=O)Oc2ccc(NC(C)=O)cc2)ccc1C(=O)O/C=C/c1ccccc1 | > 100 | > 100 |  | > 100 | > 100 | > 100 | > 100 | > 100 | > 100 | > 100 |  |  |  |  |  |  |  |  |  |
| Nc1ccccc1N=Cc1cc2cc([N+](=O)[O-])ccc2s1 | 29.7 | > 100 | 29.6 | 37.3 |  | 28.7 | 51.2 | 31.7 | 57.8 | > 100 |  |  |  |  |  |  |  |  |  |
| Cc1cc2c(cc1C(=O)c1ccc(N)cc1)OCO2 | 85.6 | > 100 | > 100 | 74 |  |  | > 100 | > 100 |  | 87.7 |  |  |  |  |  |  |  |  |  |
